Here are results for eleven compounds from patent publication US20160052926A1, “NOVEL PYRIMIDINE AND PYRIDINE COMPOUNDS AND USAGE THEREOF” (HUTCHISON MEDIPHARMA LIMITED, priority 2013, published 2016).

For assay [1], the target named is Recombinant human FGFR1 (Homo sapiens, UniProt P11362). The experiment in a line: Transcreener Kinase Assay of FGFR1. The settings on record: read-out: FGFR1 (FP) IC50. In kind it is biochemical.
Assay [2] addresses Recombinant human FGFR2 (Homo sapiens, UniProt P21802). Put plainly: Transcreener Kinase Assay of FGFR2. In kind it is biochemical. The settings on record: read-out: FGFR2 (FP) IC50.
Assay [3] deals with FGFR3 kinase (Homo sapiens, UniProt P22607). Put plainly: Z-Lyte Kinase Assay of FGFR3. It counts as biochemical. The essentials: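 FRET peptide-cleavage format: 1 h kinase reaction at RT (25-30[…]), then 1 h protease development, then stop and dual-emission read (Ex400, Em445/520 nm). Working solutions: kinase 0.7 μg/ml, Tyr 4 peptide 4 μM, ATP 300 uM in 1.33× buffer; eight compound concentrations from 1 μM, 2% DMSO final.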
Chain of FGFR3 kinase (P22607 23-806): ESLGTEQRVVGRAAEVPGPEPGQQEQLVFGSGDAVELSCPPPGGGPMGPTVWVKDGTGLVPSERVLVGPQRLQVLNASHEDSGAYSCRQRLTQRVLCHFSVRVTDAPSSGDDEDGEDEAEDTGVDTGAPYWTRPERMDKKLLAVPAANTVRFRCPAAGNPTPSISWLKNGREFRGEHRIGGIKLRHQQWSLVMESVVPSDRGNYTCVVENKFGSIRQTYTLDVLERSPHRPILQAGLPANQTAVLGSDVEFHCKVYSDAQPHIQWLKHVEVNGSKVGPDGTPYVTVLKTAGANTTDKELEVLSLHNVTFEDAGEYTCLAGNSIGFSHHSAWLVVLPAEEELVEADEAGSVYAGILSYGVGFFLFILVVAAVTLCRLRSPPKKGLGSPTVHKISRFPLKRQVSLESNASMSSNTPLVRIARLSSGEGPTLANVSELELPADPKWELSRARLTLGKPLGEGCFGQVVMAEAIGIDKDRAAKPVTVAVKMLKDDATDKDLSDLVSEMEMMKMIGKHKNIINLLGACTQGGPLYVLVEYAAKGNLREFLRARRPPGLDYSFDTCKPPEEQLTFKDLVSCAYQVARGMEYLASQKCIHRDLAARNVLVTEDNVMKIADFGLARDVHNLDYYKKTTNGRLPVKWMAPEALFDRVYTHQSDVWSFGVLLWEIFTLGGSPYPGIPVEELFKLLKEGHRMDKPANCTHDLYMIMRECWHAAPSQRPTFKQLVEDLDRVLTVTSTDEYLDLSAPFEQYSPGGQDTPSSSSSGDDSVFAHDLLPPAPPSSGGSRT

The test system of assay [4] is KG-1. Put plainly: Cellular Proliferation Assay (Cell Counting Kit-8), KG-1. In kind it is cell-based. Conditions: Homo sapiens, KG1 cells, 72 hours. The gist of the method: (§1)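 Proliferation was read as OD at 450 nm after 1 h with CCK-8, following 72 h drug exposure at 37 °C, 5% CO2. Inhibition was calculated against cells in 0.5% DMSO minus medium blank, and the 50% point reported. The compound series (10–0.004 μM, pre-addition, in 5% DMSO) was added one day after plating KG-1, SNU-16 and RT-112 at 30,000, 5,000 and 1,000 cells/well respectively.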
A general note: Formazan colour is commonly taken as a measure of viable cells.

Assay [5] has as its system SNU-16. The experiment in a line: Cellular Proliferation Assay (Cell Counting Kit-8), SNU-16. The settings on record: Homo sapiens, SNU-16 cells, 72 hours. It counts as cell-based. The gist of the method:
as §1

Assay [6] concerns RT-112. The experiment in a line: Cellular Proliferation Assay (Cell Counting Kit-8), RT-112. It counts as cell-based. Conditions: Homo sapiens, RT-112 cells, 72 hours. On the procedure:
Cellular Proliferation Assay
• KG-1 (ATCC Accession No. CCL-246), • SNU-16 (ATCC Accession No. CRL-5974), • RT-112 (ECACC Accession No. 85061106)
• FGFR related cancer cell proliferation is measured in 96-well plates using Cell Counting Kit-8 (Dojindo CK04-13). • Seed 30000 cells/well of KG1, 5000 cells/well of SNU16, and 1000 cells/well of RT112 in a volume of 100 μL/well in growth media. • After 24 hours, dilute the compound to 10, 3.3, 1.1, 0.37, 0.12, 0.04, 0.013, 0.004 μM, keeping the DMSO concentration at 5%. • Add 10 μL of 8-point compound series to the wells of culturing cells. • Incubate at 37° C. and 5% CO2 for 72 hours • Add 10 μL/well of CCkit8 and incubate at 37° C. and 5% CO2 for an hour • Detect the optical density of each well at 450 nm on Labsystems Multiskan K3.
• ODcompound well represents the optical density of cells treated with compound. • ODcell well represents the optical density of cells without compounds treatment. (only 0.5% DMSO) • ODcontrol well represents the optical density of culture media background
The concentration of compound providing 50% of proliferation inhibition was calculated using Excel Fit.

Chain of Recombinant human FGFR1 (P11362 22-822): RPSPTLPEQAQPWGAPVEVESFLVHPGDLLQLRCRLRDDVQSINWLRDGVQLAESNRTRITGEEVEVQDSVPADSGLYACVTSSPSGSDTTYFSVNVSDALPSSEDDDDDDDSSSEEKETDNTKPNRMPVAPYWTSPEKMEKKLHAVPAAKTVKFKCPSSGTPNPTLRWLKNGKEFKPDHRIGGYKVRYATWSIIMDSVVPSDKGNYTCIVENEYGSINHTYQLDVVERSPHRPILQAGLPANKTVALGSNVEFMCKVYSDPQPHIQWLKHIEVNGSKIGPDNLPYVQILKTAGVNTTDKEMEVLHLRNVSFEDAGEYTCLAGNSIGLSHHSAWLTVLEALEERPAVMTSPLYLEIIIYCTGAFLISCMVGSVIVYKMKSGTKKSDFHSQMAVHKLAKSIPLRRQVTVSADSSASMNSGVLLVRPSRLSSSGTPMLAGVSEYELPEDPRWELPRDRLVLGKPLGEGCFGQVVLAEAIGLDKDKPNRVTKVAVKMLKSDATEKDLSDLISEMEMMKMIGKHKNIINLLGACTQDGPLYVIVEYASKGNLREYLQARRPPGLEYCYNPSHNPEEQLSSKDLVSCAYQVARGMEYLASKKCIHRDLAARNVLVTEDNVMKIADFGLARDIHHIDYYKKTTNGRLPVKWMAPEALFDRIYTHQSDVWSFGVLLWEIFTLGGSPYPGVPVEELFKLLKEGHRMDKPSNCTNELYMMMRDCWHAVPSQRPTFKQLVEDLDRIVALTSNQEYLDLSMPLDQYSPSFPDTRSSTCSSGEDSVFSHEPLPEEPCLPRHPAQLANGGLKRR
Chain of Recombinant human FGFR2 (P21802 22-821): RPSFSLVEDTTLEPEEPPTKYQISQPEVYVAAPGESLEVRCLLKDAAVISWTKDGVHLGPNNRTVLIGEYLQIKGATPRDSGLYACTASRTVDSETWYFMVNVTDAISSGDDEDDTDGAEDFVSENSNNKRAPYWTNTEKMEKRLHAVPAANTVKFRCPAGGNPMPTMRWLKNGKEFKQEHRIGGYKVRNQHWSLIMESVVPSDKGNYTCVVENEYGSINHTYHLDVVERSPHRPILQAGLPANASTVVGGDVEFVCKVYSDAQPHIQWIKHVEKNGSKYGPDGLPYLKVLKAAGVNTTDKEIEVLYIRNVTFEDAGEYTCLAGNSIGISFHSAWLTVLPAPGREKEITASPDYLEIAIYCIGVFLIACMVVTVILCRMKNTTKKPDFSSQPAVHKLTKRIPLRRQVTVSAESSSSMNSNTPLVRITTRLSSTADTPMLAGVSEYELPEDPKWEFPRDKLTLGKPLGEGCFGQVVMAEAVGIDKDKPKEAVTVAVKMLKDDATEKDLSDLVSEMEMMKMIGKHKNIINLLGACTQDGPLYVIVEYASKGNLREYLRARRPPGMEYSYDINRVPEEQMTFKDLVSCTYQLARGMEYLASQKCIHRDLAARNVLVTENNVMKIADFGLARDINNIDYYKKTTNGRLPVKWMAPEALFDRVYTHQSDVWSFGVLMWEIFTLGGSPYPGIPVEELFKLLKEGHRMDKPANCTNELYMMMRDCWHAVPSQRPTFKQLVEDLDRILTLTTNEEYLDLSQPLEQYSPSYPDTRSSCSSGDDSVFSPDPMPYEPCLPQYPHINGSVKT

What is called IC50 is the concentration that gives 50% inhibition. Regarding `CNC(=O)c1cc(COc2cnc(Nc3ccc(N4CCNCC4)cc3)nc2)c(F)c(OC)c1` [Compound 188], the 50% inhibitory concentration (IC50) in assay [1] was 8 nM; in assay [2] it was 5 nM; in assay [3] it was 10 nM; in assay [4], 20 nM; in assay [5] it was 6 nM; in assay [6], 12 nM.

With `CCN1CCC[C@@H](n2cc(Nc3ncc(CCc4cc(C(=O)NC)cc(OC)c4F)cn3)cn2)C1` [Compound 174], the concentration for half-maximal inhibition (IC50) stood at 10 nM in assay [1]; 6 nM in assay [2]; 5 nM in assay [3]; 40 nM in assay [4]; 17 nM in assay [5]; 65 nM in assay [6].

In the case of `CNC(=O)c1cc(CCc2cnc(Nc3cnn([C@@H]4CCCNC4)c3)nc2)c(F)c(OC)c1` [Compound 159, (R)-4-fluoro-3-methoxy-N-methyl-5-(2-(2-(1-(piperidin-3-yl)-1H-pyrazol-4-ylamino)pyrimidin-5-yl)ethyl)benzamide], the IC50 was determined as 8 nM in assay [1]; 6 nM in assay [2]; 8 nM in assay [3]; 290 nM in assay [4]; 75 nM in assay [5]; 759 nM in assay [6].

Regarding `CNC(=O)c1cc(CCc2cnc(Nc3cn[nH]c3)nc2)c(F)c(OC)c1` [Compound 102], the IC50 in assay [1] came out at 12 nM; in assay [2], 7 nM; in assay [3], 18 nM; in assay [4], 33 nM; in assay [5], 55 nM; in assay [6] it was 461 nM.

In the case of `CCn1cc(Nc2ncc(/C=C/c3c(F)c(C(=O)NC)cc(OC)c3Cl)cn2)cn1` [Compound 2], the IC50 in assay [1] turned out to be 17 nM; in assay [2] it was 10 nM; in assay [3], 17 nM; in assay [4] it was 17 nM; in assay [5], 31 nM; in assay [6], 19 nM.

Turning to `CCn1cc(Nc2ncc(CCc3cc(C(=O)NC)cc(OC)c3Cl)cn2)cn1` [Compound 115], the IC50 in assay [1] is 14 nM; in assay [2] it was 6 nM; in assay [3] it was 11 nM; in assay [4], 12 nM; in assay [5], 19 nM; in assay [6] it was 53 nM.

For `CNC(=O)c1cc(CCc2cnc(Nc3ccc4ncnn4c3)nc2)c(F)c(OC)c1` [Compound 95], the IC50 in assay [1] stood at 34 nM; in assay [2] it was 12 nM; in assay [3], 33 nM; in assay [4], 44 nM; in assay [5], 33 nM; in assay [6], 72 nM.

In the case of `CNC(=O)c1cc(CCc2cnc(Nc3cnn([C@H]4CCCNC4)c3)nc2)c(F)c(OC)c1` [Compound 163], the IC50 in assay [1] came out at 7 nM; in assay [2] it was 6 nM; in assay [3] it was 8 nM; in assay [4], 201 nM; in assay [5], 60 nM; in assay [6], 584 nM.

`CNC(=O)c1cc(CCc2cnc(Nc3cnn(CCOC)c3)nc2)c(Cl)c(OC)c1` [Compound 127]: the half-maximal inhibitory concentration (IC50) in assay [1] was found to be 9 nM; in assay [2], 5 nM; in assay [3], 9 nM; in assay [4] it was 22 nM; in assay [5], 20 nM; in assay [6] it was 66 nM.

As for `CNC(=O)c1cc(CCc2cnc(Nc3ccc4nnc(C)n4c3)nc2)c(F)c(OC)c1` [Compound 69], the IC50 in assay [1] came out at 42 nM; in assay [2], 20 nM; in assay [3], 42 nM; in assay [4], 268 nM; in assay [5] it was 85 nM; in assay [6] it was 337 nM.

Regarding `CNC(=O)c1cc(CCc2cnc(Nc3cnn(C[C@@H](C)O)c3)nc2)c(F)c(OC)c1` [Compound 33], the half-inhibitory concentration (IC50) in assay [1] came out at 22 nM; in assay [2], 7 nM; in assay [3], 17 nM; in assay [4], 47 nM; in assay [5] it was 19 nM; in assay [6], 135 nM.
